From patent US20240382557A1, “INHIBITION OF TUMOR NECROSIS FACTOR, PRO-INFLAMMATORY CYTOKINES AND OTHER INFLAMMATORY RESPONSE MEDIATORS” (Allegro Pharmaceuticals, LLC, priority 2021, published 2024)
Where a SMILES comes first, the peptide text is derived from it. [ ]: non-standard residue; d: D form. Cya = N[C@@H](CS(=O)(=O)O)C(=O)O

System: Primary human immune cells (PBMC)
Test: RNA-seq gene expression in primary human immune cells after risuteganib
Assay type: cell-based
Details: 100 μM, 8 hours
Protocol: Purpose: In this study, RNA-seq was used to unbiasedly identify the genes regulated by risuteganib exposure in primary human immune cells. Analysis of the specific subset of genes regulated by risuteganib enables identification of biological processes and pathways modulated by the oligopeptide Methods: Primary human immune cells (PBMC) were obtained from a single human donor. The cells were separated into two groups: vehicle or 100 μM risuteganib treatment for 8 hours. After exposure, cells were collected and their total RNA isolated for RNA-seq. The generated reads were then aligned to human reference genome/transcriptome and gene expression quantified for differential expression analysis and fold change calculation. The list of regulated genes was then used to identify biological processes and pathways that are regulated after Risuteganib exposure compared to vehicle control.

SMILES: C[C@@H](O)[C@H](NC(=O)[C@H](CS(=O)(=O)O)NC(=O)CNC(=O)[C@H](CCCNC(=N)N)NC(=O)CN)C(=O)N1CCC[C@H]1C(=O)O [Risuteganib, Glycyl-L-arginylglycyl-3-sulfo-L-alanyl-L-threonyl-L-proline] (H-GRG[Cya]TP-OH)
- ADAM8 Mean Expression Rate (Normalized as Fraction Control): 0.9708
- ADGRB1 Mean Expression Rate (Normalized as Fraction Control): 0.8444
- ADGRE2 Mean Expression Rate (Normalized as Fraction Control): 0.923
- ADGRG3 Mean Expression Rate (Normalized as Fraction Control): 0.8381
- AGER Mean Expression Rate (Normalized as Fraction Control): 0.9136
- AKIRIN2 Mean Expression Rate (Normalized as Fraction Control): 0.9697
- ALDH3B1 Mean Expression Rate (Normalized as Fraction Control): 0.8912
- ANPEP Mean Expression Rate (Normalized as Fraction Control): 0.9082
- ARRB2 Mean Expression Rate (Normalized as Fraction Control): 0.9014
- ARSA Mean Expression Rate (Normalized as Fraction Control): 0.9239
- ATP6V0A1 Mean Expression Rate (Normalized as Fraction Control): 0.9432
- BAG6 Mean Expression Rate (Normalized as Fraction Control): 0.9522
- BCL3 Mean Expression Rate (Normalized as Fraction Control): 0.8918
- BRI3 Mean Expression Rate (Normalized as Fraction Control): 0.9397
- CCL2 Mean Expression Rate (Normalized as Fraction Control): 0.9143
- CCL3L1 Mean Expression Rate (Normalized as Fraction Control): 0.8739
- CCL4L2 Mean Expression Rate (Normalized as Fraction Control): 0.9389
- CCL4 Mean Expression Rate (Normalized as Fraction Control): 0.9605
- CCL22 Mean Expression Rate (Normalized as Fraction Control): 0.9197
- CD14 Mean Expression Rate (Normalized as Fraction Control): 0.8899
- CD63 Mean Expression Rate (Normalized as Fraction Control): 0.9487
- CD300A Mean Expression Rate (Normalized as Fraction Control): 0.9137
- CDC37 Mean Expression Rate (Normalized as Fraction Control): 0.935
- CEBPB Mean Expression Rate (Normalized as Fraction Control): 0.8752
- CKAP4 Mean Expression Rate (Normalized as Fraction Control): 0.9133
- CLCF1 Mean Expression Rate (Normalized as Fraction Control): 0.8975
- CSF1 Mean Expression Rate (Normalized as Fraction Control): 0.8841
- CSF3 Mean Expression Rate (Normalized as Fraction Control): 0.8615
- CSTB Mean Expression Rate (Normalized as Fraction Control): 0.9649
- CTSA Mean Expression Rate (Normalized as Fraction Control): 0.941
- CTSD Mean Expression Rate (Normalized as Fraction Control): 0.9173
- CXCL1 Mean Expression Rate (Normalized as Fraction Control): 0.9216
- CXCL2 Mean Expression Rate (Normalized as Fraction Control): 0.8524
- CXCL16 Mean Expression Rate (Normalized as Fraction Control): 0.9326
- CYB5R3 Mean Expression Rate (Normalized as Fraction Control): 0.9564
- CYBA Mean Expression Rate (Normalized as Fraction Control): 0.8869
- CYP27B1 Mean Expression Rate (Normalized as Fraction Control): 0.8623
- DGAT1 Mean Expression Rate (Normalized as Fraction Control): 0.9308
- DNAJC5 Mean Expression Rate (Normalized as Fraction Control): 0.969
- DOK3 Mean Expression Rate (Normalized as Fraction Control): 0.8929
- DYSF Mean Expression Rate (Normalized as Fraction Control): 0.8587
- ERCC1 Mean Expression Rate (Normalized as Fraction Control): 0.8784
- FABP5 Mean Expression Rate (Normalized as Fraction Control): 0.8713
- FCER1G Mean Expression Rate (Normalized as Fraction Control): 0.9289
- FCER2 Mean Expression Rate (Normalized as Fraction Control): 0.7686
- FCGRT Mean Expression Rate (Normalized as Fraction Control): 0.8558
- FGR Mean Expression Rate (Normalized as Fraction Control): 0.9222
- FOS Mean Expression Rate (Normalized as Fraction Control): 0.822
- GAA Mean Expression Rate (Normalized as Fraction Control): 0.9121
- GALNS Mean Expression Rate (Normalized as Fraction Control): 0.9356
- GLA Mean Expression Rate (Normalized as Fraction Control): 0.9639
- GPR84 Mean Expression Rate (Normalized as Fraction Control): 0.9231
- GPX1 Mean Expression Rate (Normalized as Fraction Control): 0.9254
- GRN Mean Expression Rate (Normalized as Fraction Control): 0.9221
- HEXIM1 Mean Expression Rate (Normalized as Fraction Control): 0.9653
- HIST2H2BE Mean Expression Rate (Normalized as Fraction Control): 0.8527
- HLA-DPB1 Mean Expression Rate (Normalized as Fraction Control): 0.9295
- HLA-DQB1 Mean Expression Rate (Normalized as Fraction Control): 0.9554
- HLX Mean Expression Rate (Normalized as Fraction Control): 0.9084
- HRAS Mean Expression Rate (Normalized as Fraction Control): 0.9238
- IFI30 Mean Expression Rate (Normalized as Fraction Control): 0.8318
- IGHD Mean Expression Rate (Normalized as Fraction Control): 0.8731
- IGLC2 Mean Expression Rate (Normalized as Fraction Control): 0.8467
- IGLV2-23 Mean Expression Rate (Normalized as Fraction Control): 0.4503
- IL1RN Mean Expression Rate (Normalized as Fraction Control): 0.8469
- IL4R Mean Expression Rate (Normalized as Fraction Control): 0.9748
- IL6 Mean Expression Rate (Normalized as Fraction Control): 0.9281
- IRF5 Mean Expression Rate (Normalized as Fraction Control): 0.9293
- ITGAL Mean Expression Rate (Normalized as Fraction Control): 0.9842
- ITGAM Mean Expression Rate (Normalized as Fraction Control): 0.9473
- ITGAX Mean Expression Rate (Normalized as Fraction Control): 0.8865
- KCNAB2 Mean Expression Rate (Normalized as Fraction Control): 0.9588
- KCNN4 Mean Expression Rate (Normalized as Fraction Control): 0.9127
- LFNG Mean Expression Rate (Normalized as Fraction Control): 0.9734
- LIF Mean Expression Rate (Normalized as Fraction Control): 0.7939
- LILRB3 Mean Expression Rate (Normalized as Fraction Control): 0.9396
- LILRB4 Mean Expression Rate (Normalized as Fraction Control): 0.897
- LIMK1 Mean Expression Rate (Normalized as Fraction Control): 0.9285
- LRP1 Mean Expression Rate (Normalized as Fraction Control): 0.9405
- LTB4R Mean Expression Rate (Normalized as Fraction Control): 0.834
- LTBR Mean Expression Rate (Normalized as Fraction Control): 0.9644
- MAN2B1 Mean Expression Rate (Normalized as Fraction Control): 0.9706
- MAP2K7 Mean Expression Rate (Normalized as Fraction Control): 0.9421
- MCEMP1 Mean Expression Rate (Normalized as Fraction Control): 0.86
- MCOLN1 Mean Expression Rate (Normalized as Fraction Control): 0.9403
- MMP9 Mean Expression Rate (Normalized as Fraction Control): 0.9125
- MMP25 Mean Expression Rate (Normalized as Fraction Control): 0.8959
- MT2A Mean Expression Rate (Normalized as Fraction Control): 0.9216
- MUCL1 Mean Expression Rate (Normalized as Fraction Control): 0.6866
- MYO1G Mean Expression Rate (Normalized as Fraction Control): 0.9214
- NBEAL2 Mean Expression Rate (Normalized as Fraction Control): 0.9432
- NCF4 Mean Expression Rate (Normalized as Fraction Control): 0.9433
- NECTIN2 Mean Expression Rate (Normalized as Fraction Control): 0.9479
- NFAM1 Mean Expression Rate (Normalized as Fraction Control): 0.8948
- NFKB2 Mean Expression Rate (Normalized as Fraction Control): 0.9675
- NFKBID Mean Expression Rate (Normalized as Fraction Control): 0.9203
- NPLOC4 Mean Expression Rate (Normalized as Fraction Control): 0.9748
- NRROS Mean Expression Rate (Normalized as Fraction Control): 0.9202
- ORAI1 Mean Expression Rate (Normalized as Fraction Control): 0.9714
- OSCAR Mean Expression Rate (Normalized as Fraction Control): 0.772
- OSM Mean Expression Rate (Normalized as Fraction Control): 0.8306
- OTUB1 Mean Expression Rate (Normalized as Fraction Control): 0.9445
- PDXK Mean Expression Rate (Normalized as Fraction Control): 0.973
- PFKL Mean Expression Rate (Normalized as Fraction Control): 0.9804
- PI3 Mean Expression Rate (Normalized as Fraction Control): 0.9158
- PILRA Mean Expression Rate (Normalized as Fraction Control): 0.9457
- PLAUR Mean Expression Rate (Normalized as Fraction Control): 0.9104
- PLD2 Mean Expression Rate (Normalized as Fraction Control): 0.9215
- PRAM1 Mean Expression Rate (Normalized as Fraction Control): 0.8661
- PRKCD Mean Expression Rate (Normalized as Fraction Control): 0.9631
- PSTPIP1 Mean Expression Rate (Normalized as Fraction Control): 0.9409
- QSOX1 Mean Expression Rate (Normalized as Fraction Control): 0.9355
- RAB5C Mean Expression Rate (Normalized as Fraction Control): 0.9246
- RAC2 Mean Expression Rate (Normalized as Fraction Control): 0.9763
- RAPGEF1 Mean Expression Rate (Normalized as Fraction Control): 0.9459
- RARA Mean Expression Rate (Normalized as Fraction Control): 0.8926
- RELB Mean Expression Rate (Normalized as Fraction Control): 0.9647
- RHOG Mean Expression Rate (Normalized as Fraction Control): 0.9592
- RNF19B Mean Expression Rate (Normalized as Fraction Control): 0.9469
- S100A11 Mean Expression Rate (Normalized as Fraction Control): 0.9492
- SH2B2 Mean Expression Rate (Normalized as Fraction Control): 0.879
- SIRPA Mean Expression Rate (Normalized as Fraction Control): 0.9657
- SLC11A1 Mean Expression Rate (Normalized as Fraction Control): 0.8842
- SLC26A6 Mean Expression Rate (Normalized as Fraction Control): 0.9452
- SOCS1 Mean Expression Rate (Normalized as Fraction Control): 0.9289
- SP2 Mean Expression Rate (Normalized as Fraction Control): 0.9613
- SRC Mean Expression Rate (Normalized as Fraction Control): 0.9483
- STK10 Mean Expression Rate (Normalized as Fraction Control): 0.9606
- STX4 Mean Expression Rate (Normalized as Fraction Control): 0.949
- STXBP2 Mean Expression Rate (Normalized as Fraction Control): 0.8885
- SUPT6H Mean Expression Rate (Normalized as Fraction Control): 0.9568
- TCIRG1 Mean Expression Rate (Normalized as Fraction Control): 0.892
- TFE3 Mean Expression Rate (Normalized as Fraction Control): 0.9731
- TICAM1 Mean Expression Rate (Normalized as Fraction Control): 0.9382
- TNF Mean Expression Rate (Normalized as Fraction Control): 0.9281
- TNFRSF1B Mean Expression Rate (Normalized as Fraction Control): 0.9604
- TNFRSF4 Mean Expression Rate (Normalized as Fraction Control): 0.9427
- TNFRSF13B Mean Expression Rate (Normalized as Fraction Control): 0.8508
- TNFRSF14 Mean Expression Rate (Normalized as Fraction Control): 0.9239
- TNFSF9 Mean Expression Rate (Normalized as Fraction Control): 0.8416
- TOM1 Mean Expression Rate (Normalized as Fraction Control): 0.9211
- TRAF3IP2 Mean Expression Rate (Normalized as Fraction Control): 0.9472
- TREM1 Mean Expression Rate (Normalized as Fraction Control): 0.9084
- TRPM2 Mean Expression Rate (Normalized as Fraction Control): 0.9391
- TYK2 Mean Expression Rate (Normalized as Fraction Control): 0.9711
- TYROBP Mean Expression Rate (Normalized as Fraction Control): 0.9329
- UNC13D Mean Expression Rate (Normalized as Fraction Control): 0.9577
- ZC3H12A Mean Expression Rate (Normalized as Fraction Control): 0.9757
- ZP3 Mean Expression Rate (Normalized as Fraction Control): 0.8491
- ZYX Mean Expression Rate (Normalized as Fraction Control): 0.9139
- genes associated with TNF-a pro-inflammatory pathway (pathway analysis) (adjusted p-value=6.22E-3): down-regulated
- NA Mean Expression Rate (Normalized as Fraction Control) (gene printed as NA): 0.9077
